Broadly, the IC50 is the concentration that inhibits the measured activity by half.

The target in assay [1] is T1, GST-FAK (N-terminal GST fusion with truncated human FAK (376-1052 (end) amino acids)) (Homo sapiens, UniProt Q05397).
T1 construct: truncated human FAK (376-1052 (end) amino acids)
Description: Biochemical enzyme assay for FAK activity (Caliper LC3000 mobility shift). The following applies: 100 uM ATP, read-out: FAK IC50. The essentials: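 Inhibitor dose series in DMSO were incubated 90 min at 25 °C with truncated GST-tagged human FAK (0.067 ng/µl) and FITC-labelled peptide substrate (1 µM), with ATP at 100 µM and FERM peptide at 1 mM (pH 7.5 HEPES). After EDTA quench, phosphorylated and unphosphorylated peptides were resolved electrophoretically. Percent conversion was fitted for IC50.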

The target in assay [2] is T2, focal adhesion kinase (FAK) autophosphorylation at tyrosine 397 in HT29 cells (Homo sapiens, UniProt Q05397).
T2 construct: endogenous in cells; host or cells: HT29
T2 sequence (Q05397 whole entry): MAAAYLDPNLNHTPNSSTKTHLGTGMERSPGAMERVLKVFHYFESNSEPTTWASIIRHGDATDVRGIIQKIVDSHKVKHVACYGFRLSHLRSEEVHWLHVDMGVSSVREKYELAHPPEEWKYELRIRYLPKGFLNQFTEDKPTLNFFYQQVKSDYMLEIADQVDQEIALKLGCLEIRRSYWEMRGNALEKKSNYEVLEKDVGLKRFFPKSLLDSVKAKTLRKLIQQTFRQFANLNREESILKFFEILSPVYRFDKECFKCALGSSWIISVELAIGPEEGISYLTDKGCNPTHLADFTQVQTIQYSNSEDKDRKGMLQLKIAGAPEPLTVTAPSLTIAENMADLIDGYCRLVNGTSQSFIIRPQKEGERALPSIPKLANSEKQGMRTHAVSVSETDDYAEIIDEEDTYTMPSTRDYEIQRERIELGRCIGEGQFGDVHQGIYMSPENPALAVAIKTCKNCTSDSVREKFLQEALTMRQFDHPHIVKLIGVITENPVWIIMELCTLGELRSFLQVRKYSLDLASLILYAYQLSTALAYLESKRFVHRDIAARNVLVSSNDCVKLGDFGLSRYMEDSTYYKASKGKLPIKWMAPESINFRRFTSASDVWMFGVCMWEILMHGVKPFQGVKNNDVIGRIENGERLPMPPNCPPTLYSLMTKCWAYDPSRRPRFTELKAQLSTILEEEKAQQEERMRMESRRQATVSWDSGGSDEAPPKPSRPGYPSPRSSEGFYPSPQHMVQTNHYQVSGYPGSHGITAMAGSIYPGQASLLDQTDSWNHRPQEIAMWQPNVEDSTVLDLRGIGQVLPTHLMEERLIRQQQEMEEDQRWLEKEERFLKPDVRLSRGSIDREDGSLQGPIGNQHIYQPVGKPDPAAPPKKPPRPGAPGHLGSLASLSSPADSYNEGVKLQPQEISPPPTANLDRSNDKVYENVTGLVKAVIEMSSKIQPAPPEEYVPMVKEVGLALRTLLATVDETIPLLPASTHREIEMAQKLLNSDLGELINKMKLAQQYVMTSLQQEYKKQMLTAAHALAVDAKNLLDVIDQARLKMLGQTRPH
Description: Cellular testing of FAK inhibitors: FAK autophosphorylation at tyrosine 397 in HT29 cells (Luminex-based assay). The following applies: 30 min serum-free, read-out: HT-29 IC50. The format is cell-based. On the procedure:
2. Assay Principle for Celluar Testing of FAK Inhibitors
Cellular activity of focal adhesion kinase (FAK) is determined by the degree of FAK autophosphorylation at tyrosine 397 using a Luminex-based assay. HT29 cells are plated with 30,000 cells per well of a 96-well plate in 100 μl medium (90% DMEM/10% FCS). At the following day, test compounds are added in a serial dilution under serum-free conditions for 30 min. Then, cells were lysed with 90 μl lysis buffer (20 mM Tris/HCl pH 8.0, 150 mM NaCl, 1% NP40, 10% Glycerol, 1% Phosphatase-Inhibitor II, 20 mM […]-Glycerolphosphat, 0.1% Protease-Inhibitor Cocktail III, 0.01% Benzonase) and lysates were cleared by centrifugation through a 96-well filter plate (0.65 μm). Samples were incubated with Luminex-beads which were coupled with an anti-total FAK antibody overnight at 4° C. with under gentle agitation. For detection of phospho-Y397-FAK a phosphospecific antibody and a species specific PE-labeled secondary antibody are added. The amount of phospho-Y397-FAK is determined in a Luminex100 machine measuring 100 events per well within 60 seconds.
Counts from samples treated with a FAK reference inhibitor are subtracted as pharmacological blank. Counts from samples treated with test compounds are calculated as percent of control from solvent treated (0.3% DMSO) samples. IC50 values were determined using AssayExplorer software.

Like-named read-outs stand apart in the source and are kept apart here. Bounds are passed on as bounds.

T1 sequence (Q05397 376-1052): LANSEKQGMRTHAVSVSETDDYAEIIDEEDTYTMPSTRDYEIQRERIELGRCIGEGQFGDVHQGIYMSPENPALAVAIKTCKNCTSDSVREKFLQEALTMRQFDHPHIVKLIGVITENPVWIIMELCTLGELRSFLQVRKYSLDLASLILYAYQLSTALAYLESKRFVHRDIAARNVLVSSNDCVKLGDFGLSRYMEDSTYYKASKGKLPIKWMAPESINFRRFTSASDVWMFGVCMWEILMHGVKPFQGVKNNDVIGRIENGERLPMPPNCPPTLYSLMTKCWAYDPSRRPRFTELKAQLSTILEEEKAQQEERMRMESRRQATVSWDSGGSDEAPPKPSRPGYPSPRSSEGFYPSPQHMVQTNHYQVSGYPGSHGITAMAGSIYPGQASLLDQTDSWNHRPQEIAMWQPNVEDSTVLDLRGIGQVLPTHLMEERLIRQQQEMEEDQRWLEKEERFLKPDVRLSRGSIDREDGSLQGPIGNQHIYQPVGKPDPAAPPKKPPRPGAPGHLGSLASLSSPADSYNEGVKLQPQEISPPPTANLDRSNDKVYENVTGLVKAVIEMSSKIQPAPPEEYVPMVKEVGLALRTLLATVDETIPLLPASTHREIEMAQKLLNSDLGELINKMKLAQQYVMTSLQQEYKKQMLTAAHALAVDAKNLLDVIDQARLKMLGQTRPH

As to `CN(C)CCCNC(=O)c1cc(NCc2ccc(F)cc2F)nc(-c2cncc(C(F)(F)F)c2)n1` [Compound 45, 6-(2,4-Difluoro-benzylamino)-2-(5-trifluoromethyl-pyridin-3-yl)-pyrimidine-4-carboxylic acid (3-dimethylamino-propyl)-amide], the IC50 in assay [1] (Table 2) is below 100 nM; in assay [2] (Table 2, phospho-Y397-FAK), 1000 to 10000 nM.
On to `O=C(NCCCn1ccnc1)c1cc(NCc2ccc(F)cc2F)nc(-c2cncc(C(F)(F)F)c2)n1` [Compound 46, 6-(2,4-Difluoro-benzylamino)-2-(5-trifluoromethyl-pyridin-3-yl)-pyrimidine-4-carboxylic acid (3-imidazol-1-yl-propyl)-amide], for which the IC50 in assay [1] (Table 2) was below 100 nM; in assay [2] (Table 2, phospho-Y397-FAK), 1000 to 10000 nM.
Consider `O=C(NCCCN1CCCC1=O)c1cc(NCc2ccc(F)cc2F)nc(-c2cncc(C(F)(F)F)c2)n1` [Compound 47, 6-(2,4-Difluoro-benzylamino)-2-(5-trifluoromethyl-pyridin-3-yl)-pyrimidine-4-carboxylic acid [3-(2-oxo-pyrrolidin-1-yl)-propyl]-amide], for which the IC50 in assay [1] (Table 2) is below 100 nM; in assay [2] (Table 2, phospho-Y397-FAK), 100 to 1000 nM.
For `O=C(NCCCN1CCOCC1)c1cc(NCc2ccc(F)cc2F)nc(-c2cncc(C(F)(F)F)c2)n1` [Compound 48, 6-(2,4-Difluoro-benzylamino)-2-(5-trifluoromethyl-pyridin-3-yl)-pyrimidine-4-carboxylic acid (3-morpholin-4-yl-propyl)-amide], the IC50 is below 100 nM in assay [1] (Table 2) and above 10000 nM in assay [2] (Table 2, phospho-Y397-FAK).
As for `NC(=O)C1CCN(C(=O)c2cc(NCc3ccc(F)cc3F)nc(-c3cncc(C(F)(F)F)c3)n2)CC1` [Compound 49, 1-[6-(2,4-Difluoro-benzylamino)-2-(5-trifluoromethyl-pyridin-3-yl)-pyrimidine-4-carbonyl]-piperidine-4-carboxylic acid amide], the IC50 in assay [1] (Table 2) was below 100 nM; in assay [2] (Table 2, phospho-Y397-FAK), 1000 to 10000 nM.
As for `NC(=O)C1CCCN(C(=O)c2cc(NCc3ccc(F)cc3F)nc(-c3cncc(C(F)(F)F)c3)n2)C1` (stereo not drawn) [Compound 50, 1-[6-(2,4-Difluoro-benzylamino)-2-(5-trifluoromethyl-pyridin-3-yl)-pyrimidine-4-carbonyl]-piperidine-3-carboxylic acid amide], the IC50 was below 100 nM in assay [1] (Table 2) and 1000 to 10000 nM in assay [2] (Table 2, phospho-Y397-FAK).
For the molecule `CN1CCC(CNC(=O)c2cc(NCc3ccc(F)cc3F)nc(-c3cncc(C(F)(F)F)c3)n2)C1` (stereo not drawn) [Compound 51, 6-(2,4-Difluoro-benzylamino)-2-(5-trifluoromethyl-pyridin-3-yl)-pyrimidine-4-carboxylic acid (1-methyl-pyrrolidin-3-ylmethyl)-amide], the half-maximal inhibitory concentration (IC50) in assay [1] (Table 2) was below 100 nM; in assay [2] (Table 2, phospho-Y397-FAK) it was 1000 to 10000 nM.
For the molecule `O=C(NCCc1c[nH]cn1)c1cc(NCc2ccc(F)cc2F)nc(-c2cncc(C(F)(F)F)c2)n1` [Compound 52, 6-(2,4-Difluoro-benzylamino)-2-(5-trifluoromethyl-pyridin-3-yl)-pyrimidine-4-carboxylic acid [2-(1H-imidazol-4-yl)-ethyl]-amide], the IC50 in assay [1] (Table 2) was below 100 nM; in assay [2] (Table 2, phospho-Y397-FAK), 1000 to 10000 nM.
The like results for `CN(C)CCCCNC(=O)c1cc(NCc2ccc(F)cc2F)nc(-c2cncc(C(F)(F)F)c2)n1` [Compound 53, 6-(2,4-Difluoro-benzylamino)-2-(5-trifluoromethyl-pyridin-3-yl)-pyrimidine-4-carboxylic acid (4-dimethylamino-butyl)-amide] were, in that order, below 100 nM and 1000 to 10000 nM.
As to `CN1CCC(NC(=O)c2cc(NCc3ccc(F)cc3F)nc(-c3cncc(C(F)(F)F)c3)n2)CC1` [Compound 54, 6-(2,4-Difluoro-benzylamino)-2-(5-trifluoromethyl-pyridin-3-yl)-pyrimidine-4-carboxylic acid (1-methyl-piperidin-4-yl)-amide], the IC50 is below 100 nM in assay [1] (Table 2) and 1000 to 10000 nM in assay [2] (Table 2, phospho-Y397-FAK).
As to `NC(=O)C1CCCN(c2cc(NCc3ccc(F)cc3F)nc(-c3cncc(C(F)(F)F)c3)n2)C1` (stereo not drawn) [Compound 55, 1-[6-(2,4-Difluoro-benzylamino)-2-(5-trifluoromethyl-pyridin-3-yl)-pyrimidin-4-yl]-piperidine-3-carboxylic acid amide], the IC50 is 100 to 1000 nM in assay [1] (Table 2) and 1000 to 10000 nM in assay [2] (Table 2, phospho-Y397-FAK).
Taken in the same sequence, the figures for `Fc1ccc(CNc2cc(NCCCn3ccnc3)nc(-c3cncc(C(F)(F)F)c3)n2)c(F)c1` [Compound 56, N-(2,4-Difluoro-benzyl)-N′-(3-imidazol-1-yl-propyl)-2-(5-trifluoromethyl-pyridin-3-yl)-pyrimidine-4,6-diamine] were 100 to 1000 nM and 1000 to 10000 nM.
Taken in the same sequence, the figures for `O=C1CCCN1CCCNc1cc(NCc2ccc(F)cc2F)nc(-c2cncc(C(F)(F)F)c2)n1` [Compound 57, 1-{3-[6-(2,4-Difluoro-benzylamino)-2-(5-trifluoromethyl-pyridin-3-yl)-pyrimidin-4-ylamino]-propyl}-pyrrolidin-2-one] were 100 to 1000 nM and 1000 to 10000 nM.
As for `Fc1ccc(CNc2cc(NCCCN3CCOCC3)nc(-c3cncc(C(F)(F)F)c3)n2)c(F)c1` [Compound 58, N-(2,4-Difluoro-benzyl)-N′-(3-morpholin-4-yl-propyl)-2-(5-trifluoromethyl-pyridin-3-yl)-pyrimidine-4,6-diamine], the IC50 in assay [1] (Table 2) is below 100 nM; in assay [2] (Table 2, phospho-Y397-FAK), 1000 to 10000 nM.
As for `NC(=O)C1CCN(c2cc(NCc3ccc(F)cc3F)nc(-c3cncc(C(F)(F)F)c3)n2)CC1` [Compound 59, 1-[6-(2,4-Difluoro-benzylamino)-2-(5-trifluoromethyl-pyridin-3-yl)-pyrimidin-4-yl]-piperidine-4-carboxylic acid amide], the IC50 is 100 to 1000 nM in assay [1] (Table 2) and 1000 to 10000 nM in assay [2] (Table 2, phospho-Y397-FAK).
As for `CN(C)CCCNc1cc(NCc2ccc(F)cc2F)nc(-c2cncc(C(F)(F)F)c2)n1` [Compound 60, N-(2,4-Difluoro-benzyl)-N′-(3-dimethylamino-propyl)-2-(5-trifluoromethyl-pyridin-3-yl)-pyrimidine-4,6-diamine], the IC50 in assay [1] (Table 2) is below 100 nM; in assay [2] (Table 2, phospho-Y397-FAK), 1000 to 10000 nM.
Consider `CCN(CC)C(=O)CCNc1cc(NCc2ccc(F)cc2F)nc(-c2cncc(C(F)(F)F)c2)n1` [Compound 62, 3-[6-(2,4-Difluoro-benzylamino)-2-(5-trifluoromethyl-pyridin-3-yl)-pyrimidin-4-ylamino]-N,N-diethyl-propionamide], for which the IC50 was in the range of 100 to 1000 nM in assay [1] (Table 2) and 1000 to 10000 nM in assay [2] (Table 2, phospho-Y397-FAK).
The like results for `O=C(CCNc1cc(NCc2ccc(F)cc2F)nc(-c2cncc(C(F)(F)F)c2)n1)N1CCOCC1` [Compound 63, 3-[6-(2,4-Difluoro-benzylamino)-2-(5-trifluoromethyl-pyridin-3-yl)-pyrimidin-4-ylamino]-1-morpholin-4-yl-propan-1-one] were, in that order, 100 to 1000 nM and 1000 to 10000 nM.
As to `CN1CCN(C(=O)CCNc2cc(NCc3ccc(F)cc3F)nc(-c3cncc(C(F)(F)F)c3)n2)CC1` [Compound 64, 3-[6-(2,4-Difluoro-benzylamino)-2-(5-trifluoromethyl-pyridin-3-yl)-pyrimidin-4-ylamino]-1-(4-methyl-piperazin-1-yl)-propan-1-one], the IC50 was in the range of 100 to 1000 nM in assay [1] (Table 2) and 1000 to 10000 nM in assay [2] (Table 2, phospho-Y397-FAK).
Taken in the same sequence, the figures for `CN(C)CCCCNc1cc(NCc2ccc(F)cc2F)nc(-c2cncc(C(F)(F)F)c2)n1` [Compound 65, N-(2,4-Difluoro-benzyl)-N′-(4-dimethylamino-butyl)-2-(5-trifluoromethyl-pyridin-3-yl)-pyrimidine-4,6-diamine] were 100 to 1000 nM and above 10000 nM.
Take `NC(=O)CNC(=O)c1cc(NCc2ccc(F)cc2F)nc(-c2cncc(C(F)(F)F)c2)n1` [Compound 72, 6-(2,4-Difluoro-benzylamino)-2-(5-trifluoromethyl-pyridin-3-yl)-pyrimidine-4-carboxylic acid carbamoylmethyl-amide]: the IC50 was below 100 nM in assay [1] (Table 2) and 100 to 1000 nM in assay [2] (Table 2, phospho-Y397-FAK).
Take `Nc1ncccc1-c1nccc(NCc2ccccc2C(F)(F)F)n1` [Compound 77, 2-(2-Aminopyridin-3-yl)-N-[2-(trifluoromethyl)benzyl]pyrimidin-4-amine]: the IC50 in assay [1] (Table 3) is 100 to 1000 nM; in assay [2] (Table 3, phospho-Y397-FAK), above 10000 nM.
The like results for `FC(F)(F)c1ccccc1CNc1ccnc(-c2cccnc2)n1` [Compound 89, 2-Pyridin-3-yl-N-[2-(trifluoromethyl)benzyl]pyrimidin-4-amine] were, in that order, 100 to 1000 nM and above 10000 nM.
Regarding `Nc1ncccc1-c1nccc(NCc2ccc(F)cc2F)n1` [Compound 98, 2-(2-Aminopyridin-3-yl)-N-(2,4-difluorobenzyl)pyrimidin-4-amine], the IC50 in assay [1] (Table 3) is 100 to 1000 nM; in assay [2] (Table 3, phospho-Y397-FAK), above 10000 nM.

These data come from US9199962B2, “Substituted azaheterocycles for the treatment of cancer” (Merck Patent GmbH, priority 2011, dated 2015).
